The test system of one series is circulating cytokines. The settings on record: LPS model, mouse; cited from earlier work.
For a further series, the system named is cardiac fibroblasts. Briefly: Fibroblast activation to myofibroblast phenotype, immunostaining for α-SMA and vimentin. In kind it is cell-based, neonatal rats. The method, then: Thirty hearts from neonatal rats were minced and digested (Neonatal Cardiomyocyte Isolation System, LK003303, Worthington). After tissue digestion and cell dissociation, cell suspensions were plated into 35 mm dishes or onto coverslips in wells of 24-well plates. Serum-free DMEM was added to the cell suspensions and the cells allowed to adhere for 2 hrs. After two hours, the cell suspension was removed and the adherent cells were fed with DMEM containing 10% fetal bovine serum (FBS). Cells were maintained in DMEM+10% FBS for 24 hours before treatments. Treatment duration was 24 hours.
Cell samples were divided in to 2 groups, stimulated with H2O2 or not stimulated with H2O2. […] The cells that were treated with H2O2 contained a final concentration of 0.001% in the wells. Drug was dissolved in 9.5% Captisol®, to a stock concentration of 5 mg/ml. […] Cells were treated for 24 hours then either fixed for immunostaining or collected as lysates for Western Blot analysis.
After 24 hours of treatment, cells on cover slips were rinsed twice with PBS, fixed in 1% paraformaldehyde for 10 minutes then rinsed in PBS for immunostaining. Cells were permeabilized for 18 minutes in 0.1% Triton-X 100 in PBS, then rinsed three times in PBS for 15 minutes each. Following the rinses, cover slips were incubated in Image-IT FX Signal Enhancer (Invitrogen) to reduce background intensities in images. Subsequently, cells were washed three times 15 min with PBS, followed by one hour of blocking in 10% Normal Goat Serum Cells and 0.05% Triton-X 100, and then incubated overnight in 4° C. with primary antibodies diluted in PBS with 2% Normal Goat Serum and 0.05% Triton-X 100. Antibodies were applied at the following concentrations: Alpha-Smooth Muscle Actin 1:200 (V5228, Sigma-Aldrich), Vimentin 1:200 (V6630, Sigma-Aldrich) and NFκB 1:200 (C-20, Santa Cruz Biotech). Following overnight incubation, cover slips were brought to room temperature over 10 minutes and then rinsed in PBS for 15 min. Following 1 hour of incubation in the dark with secondary antibodies (1:100 in PBS, A-21127 and A-21136, Life Technologies), cover slips were rinsed 3 times for 15 min in PBS, incubated in the dark with DAPI (Invitrogen, 1:600) for 10 minutes, and then rinsed for 3 times in PBS. Cover slips were then mounted upside down on glass slides and examined using a Leica SP8 confocal microscope equipped with a 10× air lens. Images were taken as described and split into channels. Each channel was reviewed by eye to determine if NFκB was in the nucleus or in the cytosol.

The next series deals with SSADH null mice. The series can be described thus: Eight-hour NS2 treatment (metabolite) study in wild type and SSADH null mice. In kind it is in vivo. From the text:
Mice were 22-23 days old on the day of treatment, and groups (n=3) were balanced for age and gender. […] Future studies in this model will encompass a dose-finding paradigm to ensure adequate target exposure; dose earlier in life; and increase group sizes.
The design of the study was as follows: • Treatment groups were balanced for date of birth, gender, and weight. • SSADH null mice were generated by crossing mice heterozygous for SSADH deficiency. Expected number of null progeny is 1 in 4. Seven SSADH null mice were generated from this breeding, of which three were assigned to group 3 and four were assigned to group 4.
• On the day of dosing, NS2 and vehicle were brought to room temperature. […] This working solution was prepared at room temperature, using aseptic technique in the animal dosing suite, and was used within one hour of preparation. • Dosing volume was ˜0.4 μL/g body weight for both mutant and wild-type subjects (note: the average body weight for the SSADH null mice is ˜4.9±0.9 g, and that of age-matched wild-type littermate is 10.2±0.9 g). DMSO total dose is weight normalized. • Leftover working solutions were discarded.
Organs were snap frozen in liquid nitrogen for biochemical analysis and stored at −80° C. • A terminal cardiac blood sample was obtained in a standard microtainer for serum collection. Serum was prepared by centrifugation for 10 minutes at […] (2500×g) and stored at −80° C. until analyses. […]
Plasma and tissue homogenates were shipped to the laboratory of Professor Gajja Salomons (VU Medical Center, Amsterdam, the Netherlands) on May 11, 2015. SSA, GHB and D2HG levels were assayed in the Salomons laboratory using the following published methods: 1) “Stable isotope dilution analysis of 4-hydroxybutyric acid: an accurate method for quantification in physiological fluids and the prenatal diagnosis of 4-hydroxybutyric aciduria,” Gibson et al., 1990, Biomed Environ Mass Spectrom. […]

In series [1] the test system is Primary rat cortical cultures. The series can be described thus: LDH cytotoxicity assay, aldehyde-mediated cell death in neurons. In kind it is cell-based. The method, then:
Primary rat cortical cultures are placed in an incubator for 24 or 48 hours and treated with various concentrations of disclosed compounds. Then 20 μL of the culture media is removed for an LDH assay as described in Bergmeyer et al., Methods of Enzymatic Analysis, 3rd ed. (1983).

The mark [2] stands for this setting: SSADH null mice, 8 hours after single 10 mg/kg i.p.

On to `CC(C)(O)c1nc2ccc(Cl)cc2cc1N` [NS2, 2-(3-amino-6-chloroquinolin-2-yl)propan-2-ol], for which, in the series with circulating cytokines, the “activation of IL-1β” value is “significantly decreased”, the “activation of IL-17” value is “significantly decreased”, the “activation of TGF-β” value is listed as “significantly decreased” and the “levels of the anti-inflammatory cytokine Interleukin 10 (IL-10)” value is listed as “significantly increasing”. Moreover, the cell morphology result in the series on cardiac fibroblasts (1 mM, cells stimulated with H2O2 or not) is listed as “morphology of a non-activated fibroblast”. Further, the “α-SMA production and morphology change (immunostaining)” value in the series with cardiac fibroblasts (H2O2 stimulated cells, 10 μM, 24 hours) is listed as “little effect”. Besides, the “α-SMA production (immunostaining)” value in the series on cardiac fibroblasts (H2O2 stimulated cells, 100 μM, 24 hours) is listed as “clear inhibition”. Besides, the “cell shape of activated myofibroblasts” value with cardiac fibroblasts (unstimulated cells, 10 μM) was “does not change”. Besides, in the series with cardiac fibroblasts (unstimulated cells, 10 μM, 24 hours), the “α-SMA production (immunostaining)” value is given as “little effect”. In the series with cardiac fibroblasts (unstimulated cells, 100 μM), the cell morphology entry is recorded as “morphology more like that of a non-activated fibroblast”. For the same compound, in the series on cardiac fibroblasts (unstimulated cells, 100 μM, 24 hours), the “α-SMA production (immunostaining)” value is reported as “inhibited the production of α-SMA”. Further, the “α-SMA production (immunostaining)” value in the series on cardiac fibroblasts (unstimulated cells, 1 mM, 24 hours) is listed as “appeared to limit the production of α-SMA”. In addition, in the series on SSADH null mice (setting [2]), the “GHB and D-2-HG in liver” value is “tendency for decrease”; the “change in levels of metabolites (GHB, SSA, D-2-HG)” value is on record as “no statistically significant changes”. Also, the tolerability entry in the series with SSADH null mice (mouse, in vivo, ip, 10 mg/kg) was “well-tolerated”. Besides, the “aldehyde-mediated cell death in neurons” value in series [1] is listed as “prevent”.

(Values after patent US20180250306A1, “ALDEHYDE CONJUGATES AND USES THEREOF” (ALDEYRA THERAPEUTICS, INC., priority 2015, published 2018).)
